Data as given in patent US12201608B2, “Methods for treating Parkinson's disease by administering resiniferatoxin” (Sorrento Therapeutics, Inc., priority 2018, dated 2025).

Assay: Pilot tolerability study of intrathecal RTX infusion
Type: in vivo, C57Bl/6J mice
Protocol: The purpose of this study was to investigate the effects of single intrathecal administration of RTX on the AAV-A53T mouse model of PD-like pathology. Prior to this study start, a pilot tolerability study was conducted in which 16 male and 16 female C57Bl/6J mice were infused with RTX at two doses (either 0.04 μg or 0.125 μg) and followed up for 24 hours thereafter to observe any possible adverse effects of the treatment.
Of the 32 total mice used in the pilot study arm, in total 4 mice died during the 24 hour monitoring period after intrathecal infusion of RTX. Two females treated with 0.125 μg dose were found dead in cage within 4-24 hours after infusion due to unknown reason.

With `C=C(C)[C@]12C[C@@H](C)[C@@]34O[C@](Cc5ccccc5)(O[C@@H]1[C@@H]3C=C(COC(=O)Cc1ccc(O)c(OC)c1)C[C@]1(O)C(=O)C(C)=C[C@@H]41)O2` [RTX, Resiniferatoxin] the “adverse effects in the rest of the mice” value (0.04 μg or 0.125 μg, 24 hour follow-up) was “No significant adverse effects”, the “found dead in cage within 4-24 hours after infusion” value (0.125 μg dose, unknown reason) was “Two females” and the “died immediately after infusion” value (0.125 μg dosing group) was “one female and one male mouse”. For the same compound, the “mice died during the 24 hour monitoring period after intrathecal infusion” value (32 mice total (16 male, 16 female), RTX 0.04 μg or 0.125 μg intrathecal) was 4 mice.
